Legend:
[1] = test system: alpha 1A adrenoceptor (human prostatic membranes); conditions: similar models; literature (Motiyama et al.); cited from earlier work
[2] = biological target: T1, alpha 1D adrenoceptor (rat aorta) (Rattus norvegicus, UniProt P23944); experiment: Vasoconstriction assay in rat aorta induced by norepinephrine; type: cell-based; conditions: pKB, rat aorta, α1D
T1 construct: from tissue; host or cells: rat aorta segments with endothelium
T1 sequence (P23944 1-561): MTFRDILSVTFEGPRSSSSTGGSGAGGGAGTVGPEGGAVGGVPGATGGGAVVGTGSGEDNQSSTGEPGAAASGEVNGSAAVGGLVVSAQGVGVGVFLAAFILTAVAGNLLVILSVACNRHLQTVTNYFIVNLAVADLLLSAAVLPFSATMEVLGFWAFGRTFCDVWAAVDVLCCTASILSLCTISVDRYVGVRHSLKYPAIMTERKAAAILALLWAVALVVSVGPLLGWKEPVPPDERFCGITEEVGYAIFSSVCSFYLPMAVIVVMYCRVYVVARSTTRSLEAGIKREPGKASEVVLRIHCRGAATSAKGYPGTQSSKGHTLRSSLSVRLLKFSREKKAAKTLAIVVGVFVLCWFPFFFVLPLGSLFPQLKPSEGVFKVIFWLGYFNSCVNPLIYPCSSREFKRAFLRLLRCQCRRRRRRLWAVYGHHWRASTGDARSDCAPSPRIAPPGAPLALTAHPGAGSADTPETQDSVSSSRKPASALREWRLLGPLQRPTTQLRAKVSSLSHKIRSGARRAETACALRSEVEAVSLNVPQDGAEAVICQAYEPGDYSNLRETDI
Experimental: Vasoconstriction Assay in Mouse Aorta Induced By Norepinephrine
Aorta segments with endothelium (3 mm), withdrawn from young male rats (250-300 g), were placed in containers containing physiologic solution (NaCl 122 mM, KCl 5 mM, NaHCO3 15 mM, glucose 11.5 mM, MgCl2 1.2 mM, CaCl2 1.25 mM and KH2PO4 1.2 mM), kept at 37° C. under aeration with a mixture of 95% of O2 and 5% of CO2, and submitted to a pre-charge of 5 mN for 60 minutes. During this period, eventual tension adjustments were performed until the stabilization in 0.5 g, always with renewal with physiologic solution. Then, vasoconstriction was induced by 60 mM KCl solution, in each ring, to verify the viability of the organ on the day of experiment. The preparation was submitted to the contraction with norepinephrine (5×10^−5 M) and, then the rings were washed to reach the basal line (0% of vasoconstriction). The procedure was repeated until the obtainment of a constant curve. Later, a curve, using increasing concentrations of norepinephrine (3×10^−8-5×10^−5 M), was performed for each ring, as a positive control. The segments were washed to reach the basal line (0% of vasoconstriction) and incubated with the test compounds, individually, for 30 minutes. A second norepinephrine curve was performed and obtained data compared to the first control curve. […] The aorta rings were used once for each compound.
Determination of the LASSBio 772 Antagonist Potency (pKB) on the Vasoconstriction of Rabbit or Rat Thoracic Aorta.

[3] = biological target: T2, α1A (Oryctolagus cuniculus, UniProt O02824); experiment: Binding study in rabbit liver; conditions: rabbit liver, α1A; read-out: IC50
T2 construct: from tissue
T2 sequence (O02824 1-466): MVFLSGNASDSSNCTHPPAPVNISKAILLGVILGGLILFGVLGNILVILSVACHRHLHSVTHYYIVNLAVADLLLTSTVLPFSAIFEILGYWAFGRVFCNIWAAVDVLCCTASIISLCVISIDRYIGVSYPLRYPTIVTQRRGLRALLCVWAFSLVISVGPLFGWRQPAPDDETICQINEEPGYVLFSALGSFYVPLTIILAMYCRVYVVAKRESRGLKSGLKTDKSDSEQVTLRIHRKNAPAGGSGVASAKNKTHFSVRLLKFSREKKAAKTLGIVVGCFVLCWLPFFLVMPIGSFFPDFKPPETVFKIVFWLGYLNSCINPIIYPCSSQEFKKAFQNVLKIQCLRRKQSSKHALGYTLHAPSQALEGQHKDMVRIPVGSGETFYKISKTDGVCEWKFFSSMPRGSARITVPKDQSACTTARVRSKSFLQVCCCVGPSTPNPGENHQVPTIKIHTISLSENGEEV

[4] = biological target: T3, alpha 1B subtype (Rattus norvegicus, UniProt P15823); experiment: [3H]prazosin binding assay in rat liver; conditions: rat liver, α1B; read-out: IC50
T3 construct: from tissue; host or cells: rat liver homogenate/membranes
T3 sequence (P15823 1-515): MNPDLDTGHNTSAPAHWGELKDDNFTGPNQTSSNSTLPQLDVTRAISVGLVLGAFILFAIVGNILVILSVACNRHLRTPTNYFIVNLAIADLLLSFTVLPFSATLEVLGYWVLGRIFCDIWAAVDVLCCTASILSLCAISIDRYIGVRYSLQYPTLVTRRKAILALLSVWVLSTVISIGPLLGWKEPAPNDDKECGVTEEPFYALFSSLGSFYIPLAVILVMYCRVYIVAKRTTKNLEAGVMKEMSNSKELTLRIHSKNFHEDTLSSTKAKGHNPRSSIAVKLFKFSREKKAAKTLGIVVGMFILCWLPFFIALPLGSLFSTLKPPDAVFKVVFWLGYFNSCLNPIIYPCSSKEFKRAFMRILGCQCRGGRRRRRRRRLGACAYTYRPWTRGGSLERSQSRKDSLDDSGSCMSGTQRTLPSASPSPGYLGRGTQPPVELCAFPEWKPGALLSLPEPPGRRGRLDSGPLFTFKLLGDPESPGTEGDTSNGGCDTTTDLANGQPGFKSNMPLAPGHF

[5] = test system: phenylephrine vasopressor effects; experiment: Inhibition of phenylephrine vasopressor effects in anesthetized rabbits; type: in vivo; conditions: rabbit, n=5
Experimental: Animal and Homodynamic Measurements:
The experiments were performed with male rabbits weighing 3 kg, from the CECAL (Centro de Criação de Animais de Laboratório) at Fundação Oswaldo Cruz. The animals were anesthetized with sodium pentobarbital (40 mg/kg) in the ear marginal vein, and anesthesia maintenance was obtained with supplemental intravenous (i.v.) doses of 5 mg/kg as necessary. The […] were tracheomized, inserted with a polyethylene canule, and immobilized with pancuronium bromide (1 mg/kg, i.v.), with supplemental doses of 0.2 mg/kg for each hour of experiment and artificially ventilated with a mechanical fan (Rodent ventilator 7025, Ugo Basile) with a volume of 10 ml/kg and frequency from 40 to 50 incursions/min. The right femoral vein was catheterized for drug administration.
The arterial pressure was monitored through abdominal aorta catheter via the right femoral artery and connected to a quartz transductor Hewlett Packard (1290 A), which was connected to an arterial pressure processor and recorder Hewlett Packard (system 7754 with amplifier 8805 B).
The systolic (SAP) and diastolic (DAP) arterial pressures were obtained directly from the records and the average arterial pressure (AAP) was calculated by DAP's Sum with a third of the differential pressure [[…]]. The cardiac frequency was determined by counting the pressure waves, visualized with the speed increase of the recorder paper.
The cardiac debit (DC) was monitored using an electromagnetic probe, connected to a Skalar flowmeter model MDL 1401. After left thoraxatomy, between the second and third ribs, was made an incision in the pericardium and the heart was exposed to enable the visualization and dissection of the ascending aorta for installation of the electromagnetic probe. The systemic vascular resistance (SVR) was calculated as a quotient of the average arterial pressure by the cardiac debit, multiplied by a conversion factor 80 (SVR=AAP/DC×80) and expressed in dyn/seg/cm-5.
At the conclusion of the anesthetic-surgical procedures, a 15-minute period was allowed for stabilization of the homodynamic parameters. Before any pharmacological manipulation the average arterial pressure, cardiac frequency and cardiac debit measurements were obtained. These values were considered basal homodynamic values.
Dose-Response Curve of the Phenylephrine Vasopressor Effect:
After surgical procedures and stabilization of the homodynamic parameters, a dose-response curve of the phenylephrine pressure effects was performed ([…], i.v.), that were named control curves. […]
The results were expressed as average±standard deviation (E.P.M.) The administration effects of LASSBio 772 with regard to the basal values were analyzed through variance analysis (ANOVA) for repeated measurements. […]

[6] = test system: alpha 1A and alpha 1B adrenoceptors (rabbit aorta, α1A > α1B); conditions: literature (Yamagishi et al.); cited from earlier work
[7] = biological target: T4, alpha 1A subtype (Rattus norvegicus, UniProt P43140); set-up: from tissue; host or cells: rat salivary gland homogenate/membranes; conditions: 0.06 nM [3H]prazosin (Michel et al.), read-out: IC50 of reference; cited from earlier work
T4 sequence (P43140 1-466): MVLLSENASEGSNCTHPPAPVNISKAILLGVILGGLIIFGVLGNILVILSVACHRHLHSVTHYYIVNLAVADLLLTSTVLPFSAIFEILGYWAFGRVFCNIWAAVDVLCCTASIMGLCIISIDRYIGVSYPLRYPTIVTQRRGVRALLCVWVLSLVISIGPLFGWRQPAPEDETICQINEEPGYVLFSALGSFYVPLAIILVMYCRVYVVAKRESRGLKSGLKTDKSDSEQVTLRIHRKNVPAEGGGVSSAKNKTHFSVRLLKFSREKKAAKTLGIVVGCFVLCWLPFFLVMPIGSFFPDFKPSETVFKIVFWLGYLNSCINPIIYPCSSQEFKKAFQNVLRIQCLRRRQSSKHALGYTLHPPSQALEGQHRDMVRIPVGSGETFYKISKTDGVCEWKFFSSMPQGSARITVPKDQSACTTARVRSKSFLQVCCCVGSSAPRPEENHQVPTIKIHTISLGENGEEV

For `C[C@H](Cc1cc2c(c(C(N)=O)c1)N(CCCO)CC2)NCCOc1ccccc1OCC(F)(F)F` [KMD-3213], the Kb [1] is given as 0.35 nM and the pKB [1] is given as 9.45.
Work on `COc1ccccc1N1CCN(CCc2ccccc2)CC1` [LASSBio 772B, 4-Phenethyl-1-(2-methoxy-phenyl)-piperazine] yielded a Kb [2] of 0.02 nM, an IC50 [3] of 23.9 nM and an IC50 [4] of 130 nM. For the same compound, the “AAP increase induced by phenylephrine in the presence of compound” value ([5]; phenylephrine 100 μg/kg i.v.) was 9±4%, the “SVR increase induced by phenylephrine in the presence of compound” value ([5]; phenylephrine 100 μg/kg i.v.) was 15±5% and the “decrease of DC induced by phenylephrine in the presence of compound” value ([5]; phenylephrine i.v.) was 7±2%.
For `COc1cc2nc(N3CCN(C(=O)c4ccco4)CC3)nc(N)c2cc1OC` [Prazosin, prazosin], the Kb [6] is given as 1.02 nM, the pKB [6] is given as 9.05 and the Kb [1] is given as 1.45 nM. The pKB [1] was 8.84.
For `COc1cccc(OC)c1OCCNCC1COc2ccccc2O1` (stereo not drawn) [WB 4101], the IC50 [7] is listed as 0.6 nM.
In the case of `CCOc1ccccc1OCCN[C@H](C)Cc1ccc(OC)c(S(N)(=O)=O)c1` [tamsulosin], the Kb [1] is listed as 0.2 nM and the pKB [1] is listed as 9.68.
